From patent US4579951A (priority 1984, dated 1986)
Where a name gives a salt, the structure may show the parent alone.

These compounds were tested on cholera toxin-induced intestinal fluid secretion (assay: animal or person). Details: Rattus norvegicus, sc, read-out: Inhibitory Doses (ID50's).
Assay type: in vivo, rat (female Charles River)

In order of falling ED50:
1. COC(=O)c1ccc(NC2=NCCC2)c(C)c1 [reference compound]  74 mg/kg
2. Cc1ccccc1C(=O)Oc1cccc(NC2=NCCC2)c1C.Cl [Example 18, 3-[(3,4-dihydro-2H-pyrrol-5-yl)amino]-2-methylphenyl 2-methylbenzoate hydrochloride]  40.5 mg/kg
3. Oc1cccc(NC2=NCCC2)c1 [Example 5, 3-[3,4-dihydro-2H-pyrrol-5-yl)amino]phenol hydrochloride]  21.3 mg/kg
4. Cc1c(NC2=NCCC2)cccc1OC(=O)c1ccc(Cl)cc1 [Example 20, 3-[(3,4-dihydro-2H-pyrrol-5-yl)amino]-2-methylphenyl 4-chlorobenzoate hydrochloride 1/4 ethanol]  10.6 mg/kg
5. CC(=O)Oc1cccc(NC2=NCCC2)c1C.Cl [Example 16, 3-[(3,4-dihydro-2H-pyrrol-5-yl)amino]-2-methylphenyl acetate hydrochloride]  10.1 mg/kg
6. COc1ccc(C(=O)Oc2cccc(NC3=NCCC3)c2C)cc1 [Example 17, 3-[(3,4-dihydro-2H-pyrrol-5-yl)amino]-2-methylphenyl 4-methoxybenzoate hydrochloride 5/8 hydrate]  9.5 mg/kg
7. Cc1c(NC2=NCCC2)cccc1OC(=O)C12CC3CC(CC(C3)C1)C2 [Example 23, 3-[(3,4-dihydro-2H-pyrrol-5-yl)amino]-2-methylphenyl adamantane-1-carboxylate hydrochloride 1/4 hydrate]  9.1 mg/kg
8. Cc1cc(OC(=O)C(C)(C)C)ccc1NC1=NCCC1 [Example 11, 4-[(3,4-dihydro-2H-pyrrol-5-yl)amino]-3-methylphenyl 2,2-dimethylpropanoatehydrochloride]  9 mg/kg
9. Cc1c(O)cccc1NC1=NCCC1.Cl [Example 3, 3-[(3,4-dihydro-2H-pyrrol-5-yl)amino]-2-methylphenol hydrochloride]  8.3 mg/kg
10. Cc1c(NC2=NCCC2)cccc1OC(=O)c1ccco1 [Example 24, 3-[(3,4-dihydro-2H-pyrrol-5-yl)amino]-2-methylphenyl furan-2-carboxylate hydrochloride 1/8 methanol]  8.3 mg/kg
11. Cc1c(NC2=NCCC2)cccc1OC(=O)C1CCCCC1.Cl [Example 14, 3-[(3,4-dihydro-2H-pyrrol-5-yl)amino]-2-methylphenyl cyclohexanecarboxylate hydrochloride]  8.1 mg/kg
12. Cc1c(NC2=NCCC2)cccc1OC(=O)C1CC1.Cl [Example 22, 3-[(3,4-dihydro-2H-pyrrol-5-yl)amino]-2-methylphenyl cyclopropanecarboxylate hydrochloride]  6.8 mg/kg
13. Cc1cc(O)ccc1NC1=NCCC1 [Example 6, 4-[(3,4-dihydro-2H-pyrrol-5-yl)amino]-3-methylphenol 1/4 hydrate]  6.5 mg/kg
14. Cc1c(NC2=NCCC2)cccc1OC(=O)C(C)(C)C [Example 10, 3-[(3,4-dihydro-2H-pyrrol-5-yl)amino]-2-methylphenyl 2,2-dimethylpropanoatehydrochloride 1/4 hydrate]  6.4 mg/kg
15. COc1ccccc1C(=O)Oc1cccc(NC2=NCCC2)c1C.Cl [Example 15, 3-[(3,4-dihydro-2H-pyrrol-5-yl)amino]-2-methylphenyl 2-methoxybenzoate hydrochloride]  6.2 mg/kg
16. Cc1ccc(C(=O)Oc2cccc(NC3=NCCC3)c2C)cc1.Cl [Example 19, 3-[(3,4-dihydro-2H-pyrrol-5-yl)amino]-2-methylphenyl 4-methylbenzoate hydrochloride]  5.9 mg/kg
17. Cc1c(NC2=NCCC2)cccc1OC(=O)c1ccccc1 [Example 12, 3-[(3,4-dihydro-2H-pyrrol-5-yl)amino]-2-methylphenyl benzoate hydrobromide 1/4 hydrate]  5.7 mg/kg
18. Cc1c(NC2=NCCC2)cccc1OC(=O)c1ccc(Cl)c(Cl)c1.Cl [Example 21, 3-[(3,4-dihydro-2H-pyrrol-5-yl)amino]-2-methylphenyl 3,4-dichlorobenzoate hydrochloride]  5 mg/kg

Same assay, conditions: antisecretory antidiarrheal activity, qualitative statement

With `CN=C(N)NC(=O)Nc1c(C)cccc1C` [Lidamidine, reference compound] the “activity in the cholera-induced intestinal fluid secretion assay (in words)” value was “active”.

Same assay, conditions: subcutaneous route; class symbol; screening doses 10 and 20 mg/kg

`COc1cccc(NC2=NCCC2)c1C` [reference compound] was tested, and the “Inhibitory Doses (ID50's)” value was “I”.
For `COc1ccc(NC2=NCCC2)c(C)c1` [reference compound], the “Inhibitory Doses (ID50's)” value was “I”.
